Experimental data reported in US10221153B2, “Dibenzothiophene compounds” (Saint Louis University, priority 2017, dated 2019).
Entries after “also recorded” stand apart in the source; their conditions may differ. Read-outs that look alike come from different tables or passages of the source.

Tests used:
[1] = Photophysical analysis: absorption, excitation and emission at 10 μM (Example 5); format: physicochemical; conditions: for λabs / λem / Stokes Shift: acetonitrile at 10 μM; for λex (excitation wavelength): acetonitrile at 10 μM (footnotes a,b); for Stokes Shift: calculated from excitation wavelength; for λex: footnotes a,g: acetonitrile at 10 μM / EtOH at 10 μM
Method: (§1) All data were collected on a SHIMAZDU Spectrofluorometer RF-5301PC. Solutions of the respective compounds were prepared in acetonitrile at approximately 1 mM concentration. Solutions (4 mL) were added to a freshly washed quartz cuvette for measurements. The excitation wavelength was varied between 270 nm and 390 nm in 20 nm intervals until the greatest intensity emission was detected. The emission spectra ranges started at 20 nm to the red of the chosen excitation wavelength up to 780 nm. Scan speed was set at “Very Fast” with both the slit widths set to 1.5 mm.
(§2) All data were collected on a SHIMAZDU Spectrofluorometer RF-5301PC. Solutions of the respective compounds were prepared in acetonitrile at approximately 1 mM concentration. Solutions (4 mL) were added to a freshly washed quartz cuvette for measurements. The monitored emission wavelength was set using the high intensity emission from the respective molecule. The scanning range was from 220 nm through 770 nm. Scan speed was set at “Very Fast” with both the slit widths set to 1.5 mm.
Excitation/emission data for compounds 6b, 7b, 8b, 15b, 16b, and 17b were collected using the methods described in Example 3 but using a lower concentration of acetonitrile (10 μM). Compounds 15b, 16b and 17b and their parent molecules (6b, 7b and 8b) all luminesce in the visible range and their optical properties are described in Table 4. […] The wavelength of λex for the excitation scan corresponds to excitation to S1, which leads to emission. This λex for all the molecules were red shifted, or shifted to the direction of longer wavelengths, from the peak absorption by an average 40 nm.

[2] = Emission and excitation scans on spectrofluorometer, approximately 1 mM in acetonitrile (Example 3); format: physicochemical
Method: General Procedure for Emission and Excitation Data Collection:
as §1, §2

[3] = Quantum yield by single-point method; conditions: single-point method in EtOH
[4] = Photophysical analysis: absorption, excitation and emission at 10 μM (Example 5); format: physicochemical; conditions: EtOH at 10 μM
[5] = system: HeLa human cervical carcinoma cell line; assay: Cell imaging of HeLa cells incubated with compound, fluorescence microscopy; format: cell-based; conditions: 1 μM; for tracking with chromosomes during mitosis / luminescence intensity in cells / location of luminescence in the cell: 120 min; for luminescence intensity in cells: excitation 350 nm, emission approximately 400 nm; for location of luminescence in the cell: merged bright field and UV images
Method: HeLa human cervical carcinoma cell line was obtained from ATCC (Manassas, Va.). The cells were cultured in a humidified incubator at 5% CO2 and 37° C. The cell line was grown in D-MEM (Invitrogen) high glucose supplemented with 10.0% fetal bovine serum (Invitrogen, Carlsbad, Calif.) and 1.0% Penicillin/Streptomycin (Invitrogen, Carlsbad, Calif.) for an environment suitable for cell growth. The culture was sub-cultured every three days to maintain normal cell growth.
Sterile glass PDL coated #1.5 cover slips (NeuVitro), pre-incubated with culture medium, were placed in sterile 6-well plates. Single cell suspension of the HeLa (cervical cancer cells taken from patient Henrietta Lacks) cell line was prepared at 5×10^4 cells ml^−1 in the appropriate medium. Volumes of 2.0 mL were pipetted into each of the wells containing the coverslips. The 6-well plate was left overnight at 37.0° C. in a 5.0% CO2 incubator. Following the overnight incubation, the plate was aspirated dry and then fresh culture medium, containing the drug (at 1.0 μM and 0.10% DMSO) in a volume of 2.0 mL, was gently pipetted onto the cell monolayers attached to the glass cover slips. Cells on the cover slips were exposed to the drug for approximately 2 hours. Cells were washed with PBS and treated with 4.0% paraformaldehyde solution prepared in PBS, incubated for 30 minutes at room temperature for […]. Several washes with PBS were completed to ensure excess solution was rinsed away. Glass cover slips were removed and mounted on slides with ProLong Gold Antifade Mountant (ThermoFisher Scientific). The specimen was dried for several minutes and sealed with clear nail polish before visualized under a microscope
Cell Image Captures: All images were captured with a Leica DM 4000 B microscope with a DFC3000G camera (Leica Microsystems, Germany) and 63× oil immersion lens. HeLa cells were staged according to the method above. Leica LASX Core Software (Leica Microsystems, Germany) was used to acquire the images.
Stained cells were clearly observed by exciting the cells with a broadly emitting lamp using DAPI filter set. Luminescence was observed within the cell bodies of the HeLa cells upon excitation of the UV wavelengths. The excitation wavelength was 350 nm and the emission wavelength was approximately 400 nm. FIG. 14 depicts representative images of HeLa cervical cancer cell lines incubated with Compounds 16b, 15b, and 17b (1 μM) for 120 min. Bright field images of cells incubated with compounds 16b, 15b, and 17b are shown in Panels A, D, and G, respectively. Luminescence from each compound (16b, 15b, and 17b) is shown in Panels B, E, and H, respectively, with UV laser radiation.

HeLa cells = assay: Anti-proliferation (MTS) assay, HeLa cells, 72 hours; format: cell-based, human; conditions: 1 nM to 100 μM
Method: To determine whether long-term exposure to each compound could be toxic to cells, Hela cells were treated with varying concentrations of Compounds 16b, 15b and 17b for 72 hours. An anti-proliferation protocol was carried out by testing chosen compounds on the growth of the human cervical cancer cell lines. HeLa cells were cultured in their respective media supplemented with 10.0% FBS (fetal bovine serum) and 1.0% Pen/Strep. Cells (1,000 cells/100 μL per well) were plated in a 96-well culture plate (TC treated, Greiner) and incubated for 24 h. 50 μL (DMSO <1%) of the compound at final concentrations 100 μM, 10 μM, 1 μM, 100 nM, 10 nM, and 1 nM were added to the appropriate wells. Triplicates wells were performed for each compound, on three identical plates.
After incubation of the cells, at 37° C. in a humidified atmosphere of 5% CO2 for 72 hours, the cells were stained and incubated with MTS (3-(4,5-dimethylthiazol-2-yl)-5-(3-carboxymethoxyphenyl)-2-(4-sulfophenyl)-2H-tetrazolium) reagent in the presence of PMS (phenazine methosulfate) reagent for 2 hours to determine cell viability. An MTS assay is based on the reduction of the MTS tetrazolium compound by viable cells to generate a colored formazan dye that is soluble in cell culture media. The absorbance of each well was taken at 490 nm using a multimode plate reader (FlexStation 3, Molecular Devices, San Diego, Calif.). GraphPad Prism was used to analyze transposed data to determine the percent viability. […] Each compound was tested in at least triplicate.

[6] = cell footnote a: acetonitrile at 10 μM

log εex (molar extinction coefficient at excitation wavelength) [1] [M^−1 cm^−1]	λabs [1] [nm]	λem [1] [nm]	λex (excitation wavelength) [1] [nm]	Stokes Shift [1] [nm]	λex [1] [nm]	emission wavelength (emitted at) [2]	excitation wavelength (excited at) [2] [nm]	φ (quantum yield) [3]	log εmax (maximum molar extinction coefficient) [4] [M^−1 cm^−1]	λem [4] [nm]	log εex (molar extinction coefficient at excitation wavelength) [1, 6]	log εmax (maximum molar extinction coefficient) [1, 6]	Structure (SMILES)	luminescence colour [2]	tracking with chromosomes during mitosis [5]	luminescence intensity in cells [5]	location of luminescence in the cell [5]	cytotoxicity / decrease in cell viability (HeLa cells)	effect on cell morphology ([5]; FIG. 14 panel G)
4.45	238	426	274	152	275	about 437 nm	344	0.05	4.69	434			O=S(=O)(Oc1ccccc1)c1ccc2c(c1)-c1cc(-c3ccccc3)ccc1S2(=O)=O [Compound 6b, phenyl 8-phenyldibenzo[b,d]thiophene-2-sulfonate 5,5-dioxide]	luminesced in either a deep blue or near blue wavelength					
4.51	243	492	274	218	274	499 nm	367	0.15	4.79	486			O=S(=O)(Oc1ccccc1)c1ccc2c(c1)-c1cc(-c3cccc4ccccc34)ccc1S2(=O)=O [Compound 7b, phenyl 8-(naphthalen-1-yl)dibenzo[b,d]thiophene-2-sulfonate 5,5-dioxide]	luminesced in either a deep blue or near blue wavelength					
4.17	243	485	283	202	286	475 nm	366	0.59	4.59	478			O=S(=O)(Oc1ccccc1)c1ccc2c(c1)-c1cc(-c3ccc(-c4ccccc4)cc3)ccc1S2(=O)=O [Compound 8b, phenyl 8-([1,1′-biphenyl]-4-yl)dibenzo[b,d]thiophene-2-sulfonate 5,5-dioxide]	luminesced in either a deep blue or near blue wavelength					
	246	412	287	125	284			0.29		422	2.48^a M^−1 cm^−1	4.75^a M^−1 cm^−1	O=S(=O)([O-])c1ccc2c(c1)-c1cc(-c3ccc(-c4ccccc4)cc3)ccc1S2(=O)=O.[Na+] [Compound 16b, sodium 8-([1,1′-biphenyl]-4-yl)dibenzo[b,d]thiophene-2-sulfonate 5,5-dioxide]		track with chromosomes during mitosis	intense luminescence	luminescence is clearly identified within the nucleus of the cell	begins to show some degree of toxicity at 100 μM; also recorded: low cytotoxicity	

Second part, the compound before the results:

Structure (SMILES)	log εex (molar extinction coefficient at excitation wavelength) [1] [M^−1 cm^−1]	λabs [1] [nm]	λem [1] [nm]	λex (excitation wavelength) [1] [nm]	Stokes Shift [1] [nm]	λex [1] [nm]	emission wavelength (emitted at) [2]	excitation wavelength (excited at) [2] [nm]	φ (quantum yield) [3]	log εmax (maximum molar extinction coefficient) [4] [M^−1 cm^−1]	λem [4] [nm]	log εex (molar extinction coefficient at excitation wavelength) [1, 6]	log εmax (maximum molar extinction coefficient) [1, 6]	luminescence colour [2]	tracking with chromosomes during mitosis [5]	luminescence intensity in cells [5]	location of luminescence in the cell [5]	cytotoxicity / decrease in cell viability (HeLa cells)	effect on cell morphology ([5]; FIG. 14 panel G)
O=S(=O)(Oc1ccccc1)c1ccc2c(c1)c1cc(-c3cccc4ccccc34)ccc1[s+]2[O-] (stereo not shown) [Compound 7a, phenyl 8-(naphthalen-1-yl)dibenzo[b,d]thiophene-2-sulfonate 5-oxide]														luminesced in either a deep blue or near blue wavelength					
O=S(=O)(Oc1ccccc1)c1ccc2c(c1)c1cc(-c3ccc(-c4ccccc4)cc3)ccc1[s+]2[O-] (stereo not shown) [Compound 8a, phenyl 8-([1,1′-biphenyl]-4-yl)dibenzo[b,d]thiophene-2-sulfonate 5-oxide]							477 nm	365						luminesced in either a deep blue or near blue wavelength					
O=S(=O)([O-])c1ccc2c(c1)-c1cc(-c3ccccc3)ccc1S2(=O)=O.[Na+] [Compound 15b, sodium 8-phenyldibenzo[b,d]thiophene-2-sulfonate 5,5-dioxide]	4.4	248	371	268	103	274			0.07	4.67	380				track with chromosomes during mitosis	intense luminescence	luminescence is clearly identified within the nucleus of the cell	do not show any decrease in cell viability at any concentration tested; also recorded: low cytotoxicity	
O=S(=O)([O-])c1ccc2c(c1)-c1cc(-c3cccc4ccccc34)ccc1S2(=O)=O.[Na+] [Compound 17b, sodium 8-(naphthalen-1-yl)dibenzo[b,d]thiophene-2-sulfonate 5,5-dioxide]	4.36	250	421	274	147	274			0.55	4.67	428					slight luminescence	luminescence is clearly identified within the nucleus of the cell	do not show any decrease in cell viability at any concentration tested; also recorded: no observed cytotoxicity	seemed to influence the morphology of HeLa cells
